We go through six compounds from patent publication US11492342B2, “Crystalline forms of piperazine-1,4-diylbis((6-(1H-benzo[d]imidazo-2-yl)pyridin-2yl)methanone)” (Landos Biopharma, Inc., priority 2020, dated 2022).

Each structure is given as a SMILES string. Where two headings read alike, the source gives them in different places.

A short description of data set [1]: Pharmacokinetic analysis: oral dosing to mice, BT-11 in plasma and colonic tissue by LC/MS/MS. As to conditions: for Colon BT-11 Concentration / Plasma BT-11 Cmax: oral; for Colon BT-11 Concentration: colon 4 hours post-dose. The procedure: BT-11 Form 0, Form 1, and Form 2 were orally dosed to male and female mice (n=4) to provide 8 mg/kg. Plasma was collected at 1, 2, and 4 hours post-dose. At 4 hours post-dose, colons were excised and washed in PBS. Tissues were then homogenized by Fast-Prep24 instrument. Plasma and tissue homogenate were prepared by acetonitrile-based liquid-liquid extraction. BT-11 concentrations were determined by LC/MS/MS analysis using a linear calibration curve.

Data set [2] is described as follows: Dynamic vapor sorption (DVS). The format is physicochemical. The note with it: for re-crystallization or form change during the DVS experiment: DVS kinetic plot. The procedure: Approximately, 10 mg of sample was placed into a mesh vapor sorption balance pan and loaded into a DVS-1/DVS Intrinsic/DVS Advantage dynamic vapor sorption balance by Surface Measurement Systems. The sample was subjected to a ramping profile from 40-90% relative humidity (RH) at 10% increments, maintaining the sample at each step until a stable weight had been achieved (dm/dt 0.004%, minimum step length 30 min, maximum step length 500 min) at 25° C. After completion of the sorption cycle, the sample was dried using the same procedure to 0% RH and then a second sorption cycle back to 40% RH. Two cycles were performed. The weight change during the sorption/desorption cycles were plotted, allowing for the hygroscopic nature of the sample to be determined. XRPD analysis was then carried out on any solid retained.

Data set [3] in a line: Particle size distribution (PSD) analysis. The data set is classed as physicochemical. The procedure: Particle size distribution analysis was carried out using a particle size analyzer with a dispersion cell. Approximately 50 mg of sample was weighed into a 20 mL scintillation vial and 10 mL of dispersant was added. The sample was sonicated for 30 seconds, aspirated with a glass pipette, and then added to the dispersion unit. The sample was circulated for 30 seconds to allow the dispersion to stabilize.

For data set [4] the following is noted: cited from earlier work.
The subject of data set [5] is TNFα production in the gastrointestinal tract, fecal calprotectin. The note with it: mice; cited from earlier work.
Data set [6] concerns CD25/STAT5 signaling and late-stage glycolysis. As to conditions: murine cells; cited from earlier work.
For data set [7] the test system is unchanged. As to conditions: human cells; cited from earlier work.
Data set [8] is described as follows: Solid form change on drying, followed by XRPD. The format is physicochemical.
Description: XRPD analysis was carried out, scanning the samples between 3 and 35° 2θ. The material was gently ground to release any agglomerates and loaded onto a multi-well plate with polymer film to support the sample. The multi-well plate was then placed into the diffractometer and analyzed using Cu K radiation (α1λ=1.54060 Å; α2=1.54443 Å; β=1.39225 Å; α1:α2 ratio=0.5) running in transmission mode (step size 0.0130° 2θ, step time 18.87 s) using 40 kV/40 mA generator settings. Data were visualized and analyzed.
Where [9] appears, read: mice, 8 mg/kg, plasma collected at 1, 2 and 4 hours post-dose.
The mark [10] stands for this setting: DVS, 25° C., listed as BT-11 Form 1.
The mark [11] stands for this setting: DVS, 25° C., listed as BT-11 Form 2.
The mark [12] stands for this setting: DVS, 25° C., listed as BT-11 Form 3.

`Cl.Cl.O=C(c1cccc(-c2nc3ccccc3[nH]2)n1)N1CCN(C(=O)c2cccc(-c3nc4ccccc4[nH]3)n2)CC1` [Form 1, piperazine-1,4-diylbis((6-(1H-benzo[d]imidazo-2-yl)pyridine-2-yl)methanone)] showed a Colon BT-11 Concentration in data set [1] (mice, 8 mg/kg) of 3000 ng/g. Also, in data set [1] (setting [9]), the “Plasma BT-11 Cmax” value is listed as 177 ng/mL. Further, the “re-crystallization or form change during the DVS experiment” value in data set [2] (listed as BT-11 Form 1) is listed as “no evidence of re-crystallization or form change”. In addition, in data set [2] (setting [10]), the hygroscopic nature result is recorded as “hygroscopic”, the “total mass increase up to 90% RH” value worked out at 24% and the “total mass lost below 20% RH” value turned out to be 6.0%. In data set [3] (listed as BT-11 Form 1), this compound yielded a d10 of 0.1 μm, a d50 of 0.5 μm and a d90 of 40.8 μm.

Consider `O=C(c1cccc(-c2nc3ccccc3[nH]2)n1)N1CCN(C(=O)c2cccc(-c3nc4ccccc4[nH]3)n2)CC1` [piperazine-1,4-diylbis((6-(1H-benzo[d]imidazo-2-yl)pyridine-2-yl)methanone)], for which, in data set [4], the “systemic absorption when orally administered” value is “poorly systemically absorbed”. In data set [5], the fecal calprotectin levels result was “reduces” and the “local TNFα production in the gastrointestinal tract” value was “reduces”. In addition, the “CD25/STAT5 signaling and late-stage glycolysis” value in data set [6] is “induces changes”. Further, the “CD25/STAT5 signaling and late-stage glycolysis” value in data set [7] is “induces changes”.

As to `Cl.Cl.O=C(c1cccc(-c2nc3ccccc3[nH]2)n1)N1CCN(C(=O)c2cccc(-c3nc4ccccc4[nH]3)n2)CC1` [Form 2, piperazine-1,4-diylbis((6-(1H-benzo[d]imidazo-2-yl)pyridine-2-yl)methanone)], in data set [1] (mice, 8 mg/kg), the Colon BT-11 Concentration amounted to 4470 ng/g. For the same compound, in data set [1] (setting [9]), the “Plasma BT-11 Cmax” value is reported as 41 ng/mL. Also, the “confinement to the gastrointestinal tract after oral administration” value in data set [1] (mouse, in vivo, po) is reported as “increased confinement to the gastrointestinal tract”. In data set [2] (listed as BT-11 Form 2), the “re-crystallization or form change during the DVS experiment” value was “no evidence of re-crystallization or form change”. Further, the “mass uptake on 2nd cycle” value in data set [2] (DVS, 25° C., 2nd cycle) amounted to 0.23%. For the same compound, in data set [2] (setting [11]), the hygroscopic nature result was “slightly hygroscopic” and the “total mass increase up to 90% RH” value worked out at 0.32%. In data set [3] (listed as BT-11 Form 2), this compound came in with a d10 of 18.2 μm, a d50 of 31.9 μm and a d90 of 83.9 μm.

As usually defined, the Cmax is the maximum level reached in the sampled fluid or tissue. Consider `O=C(c1cccc(-c2nc3ccccc3[nH]2)n1)N1CCN(C(=O)c2cccc(-c3nc4ccccc4[nH]3)n2)CC1` [Form 0, piperazine-1,4-diylbis((6-(1H-benzo[d]imidazo-2-yl)pyridine-2-yl)methanone)], for which, in data set [1] (both, mouse, plasma, po, 8 mg/kg, Plasma BT-11 Cmax, mice, plasma collected at 1, 2 and 4 hours post-dose), the Cmax was found to be 186 ng/mL. The same compound had a Colon BT-11 Concentration in data set [1] (mice, 8 mg/kg) of 1280 ng/g. In data set [3], this compound displayed a d10 of 0.2 μm, a d50 of 6.3 μm and a d90 of 19.8 μm.

`Cl.Cl.O=C(c1cccc(-c2nc3ccccc3[nH]2)n1)N1CCN(C(=O)c2cccc(-c3nc4ccccc4[nH]3)n2)CC1` [Form 3, piperazine-1,4-diylbis((6-(1H-benzo[d]imidazo-2-yl)pyridine-2-yl)methanone)]: in data set [2] (listed as BT-11 Form 3), the “re-crystallization or form change during the DVS experiment” value is listed as “No evidence of re-crystallization or form change”. Further, in data set [2] (DVS, 25° C.), the “total moisture uptake due to surface moisture” value was 2.8%. In data set [2] (setting [12]), the “total mass increase up to 90% RH” value was found to be 7.8% and the “total mass lost below 20% RH” value was found to be 5.0%.

Turning to `Cl.Cl.O=C(c1cccc(-c2nc3ccccc3[nH]2)n1)N1CCN(C(=O)c2cccc(-c3nc4ccccc4[nH]3)n2)CC1` [Form 7, piperazine-1,4-diylbis((6-(1H-benzo[d]imidazo-2-yl)pyridine-2-yl)methanone)], the form change post-drying result in data set [8] is listed as “convert to Form 2”.
